According to patent publication US20020137929A1, “1 - (3-heterocyclylphenyl) isothiourea, -isourea, -guanidine and -amidine herbicidal agents” (Intellectual Property Department, BASF Aktiengesellschaft, priority 1998, published 2002):

Experiments:
ORYSAT (Rice, Tebonnet) [1] = assay: Preemergence herbicidal evaluation; assay type: in vivo, Oryza sativa, (L.) Tebonnet; conditions: rated 4-5 weeks after treatment, rating scale 0-9
Procedure, shortened: (§1)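 Preemergence soil application of compound, sprayed in aqueous acetone at rates equivalent to about 0.0156 to 0.500 kg per hectare onto freshly sown cups. Plant response was judged by eye on a 0-9 scale four to five weeks later.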

ORYSAT (Rice, Tebonnet) [2] = assay: Rice tolerance to post-transplant applications, flooded paddy conditions (Table III); assay type: in vivo, Oryza sativa, (L.) Tebonnet; conditions: in vivo
Procedure: Results of herbicide evaluation are expressed on a rating scale (0-9). The scale is based upon a visual observation of plant stand, vigor, malformation, size, chlorosis and overall plant appearance as compared with a control.
The tolerance of transplanted rice to post-transplanted herbicide applications is determined as follows: two ten-day-old rice seedlings (cv. Tebonnet) are transplanted into silt loam soil in 32 oz. plastic containers with a diameter of 10.5 cm and no drainage holes. After transplanting, the containers are flooded and the water level is maintained at 1.5 to 3 cm above the soil surface. Three days after transplanting, the flooded soil surface of the containers is treated with the selected aqueous/acetone 50/50 v/v mixture containing the test compounds to provide the equivalent of about 0.0313 to 0.500 kg/ha of active ingredient. The treated containers are placed on greenhouse benches, watered such that the water level is maintained as stated above, and cared for in accordance with conventional greenhouse procedures. Three to four weeks after treatment, the test is terminated and each container is examined and herbicidal effect rated according to the rating system provided in Example 37. The compounds evaluated are reported by compound number given in Example 37.
Plant species employed in this example are reported by header abbreviation, common name and scientific name.

CASOB (Sicklepod) = assay: Postemergence herbicidal evaluation; assay type: in vivo, Cassia obtusifolia; conditions: postemergence
Procedure, shortened: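 ~2-wk seedlings; postemergence spray, 40 psi; vehicle 1:1 acetone:water + 0.5% Tween 20; rate ≈0.0156–0.500 kg/ha; greenhouse hold; scored 4–5 wk after treatment, 0–9 scale vs control; repeat tests averaged.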

[3] = test system: SAGPY (Arrowhead (Pygmaea)); assay: Preemergence weed control under flooded paddy conditions; assay type: in vivo, Sagittaria pygmaea; conditions: rated 3-4 weeks after treatment
Procedure, shortened: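 Herbicidal effect is scored visually on a 0-9 scale against an untreated control, three to four weeks after compounds are pipetted into the flood water (1.5 to 3 cm deep) over seeds planted in silt loam at 0.5 cm depth. Rates: about 0.0313 to 0.500 kg/ha.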

[4] = test system: GLXMAW (Soybean, Williams); assay: Preemergence herbicidal evaluation; assay type: in vivo, Glycine max, (L.) Merr. cv Williams; conditions: rated 4-5 weeks after treatment, rating scale 0-9
Procedure, shortened: as §1

[5] = test system: TRZAWR (Wheat, Winter, cv Riband); assay: Preemergence herbicidal evaluation; assay type: in vivo, Triticum aestivum; conditions: rated 4-5 weeks after treatment, rating scale 0-9
Procedure, shortened: as §1

SMILES | Preemergence herbicidal rating ORYSAT (ORYSAT (Rice, Tebonnet) [1]; rate 0.1250 kg/ha) | Preemergence herbicidal rating ORYSAT (ORYSAT (Rice, Tebonnet) [1]; rate 0.2500 kg/ha) | herbicidal effect rating, ORYSAT (rice tolerance) (ORYSAT (Rice, Tebonnet) [2]) | herbicidal rating CASOB (CASOB (Sicklepod); rate 0.0156 kg/ha) | herbicidal rating CASOB (CASOB (Sicklepod); rate 0.0313 kg/ha) | herbicidal rating CASOB (CASOB (Sicklepod); rate 0.0625 kg/ha) | herbicidal effect rating, SAGPY ([3]; 0.2500 kg/ha) | Preemergence herbicidal rating GLXMAW ([4]; rate 0.1250 kg/ha) | Preemergence herbicidal rating GLXMAW ([4]; rate 0.2500 kg/ha) | Preemergence herbicidal rating TRZAWR ([5]; rate 0.1250 kg/ha) | Preemergence herbicidal rating TRZAWR ([5]; rate 0.2500 kg/ha) | Preemergence herbicidal rating ORYSAT (ORYSAT (Rice, Tebonnet) [1]; rate 0.0313 kg/ha) | Preemergence herbicidal rating ORYSAT (ORYSAT (Rice, Tebonnet) [1]; rate 0.0625 kg/ha) | Preemergence herbicidal rating GLXMAW ([4]; rate 0.0313 kg/ha) | Preemergence herbicidal rating GLXMAW ([4]; rate 0.0625 kg/ha) | Preemergence herbicidal rating TRZAWR ([5]; rate 0.0313 kg/ha) | Preemergence herbicidal rating TRZAWR ([5]; rate 0.0625 kg/ha) | herbicidal effect rating, SAGPY ([3]; 0.0313 kg/ha) | herbicidal effect rating, SAGPY ([3]; 0.0625 kg/ha) | herbicidal effect rating, SAGPY ([3]; 0.1250 kg/ha)
COc1ccc(CN2C(=O)CSC2=Nc2cc(-n3c(=O)cc(C(F)(F)F)n(C)c3=O)c(F)cc2Cl)cc1OC [Compound 134, 3-{4-Chloro-5-{[3-(3,4-dimethoxybenzyl)-4-oxo-2-thiazolidinylidene]amino}-2-fluorophenyl}-1-methyl-6-(trifluoromethyl)-2,4(1H,3H)-pyrimidinedione] | 0.0 | 0.0 | 2.0 | 0.0 | 0.0 | 0.0 | 0.0 | 0.0 | 0.0 | 0.0 | 0.0 |  |  |  |  |  |  |  |  | 
CSCCN1C(=O)CSC1=Nc1cc(-n2c(=O)cc(C(F)(F)F)n(C)c2=O)c(F)cc1Cl [Compound 157] | 0.0 | 0.0 | 0.0 | 0.0 | 0.0 | 3.0 | 0.0 | 2.0 | 4.0 | 0.0 | 0.0 | 0.0 | 0.0 | 1.0 | 0.0 | 0.0 | 0.0 |  |  | 
Cn1c(C(F)(F)F)cc(=O)n(-c2cc(N=C3SCC(=O)N3Cc3ccc(Br)cc3)c(Cl)cc2F)c1=O [Compound 148, 3-{5-{[3-(p-Bromobenzyl)-4-oxo-2-thiazolidinyl-idene]amino}-4-chloro-2-fluorophenyl}-1-methyl-6-(trifluoromethyl)-2,4(1H,3H)-pyrimidinedione] | 0.0 | 0.0 | 0.0 | 3.0 | 3.0 | 3.0 | 4.0 | 0.0 | 0.0 | 0.0 | 0.0 | 0.0 | 0.0 | 0.0 | 0.0 | 0.0 | 0.0 | 0.0 | 3.0 | 4.0
